Source: ChEMBL document CHEMBL1149193, “Selective optimization of side activities: another way for drug discovery” (J Med Chem, 2004)

Assays:
D(4) dopamine receptor = biological target: T1, D(4) dopamine receptor (Homo sapiens, UniProt P21917)
T1 sequence (P21917 whole entry): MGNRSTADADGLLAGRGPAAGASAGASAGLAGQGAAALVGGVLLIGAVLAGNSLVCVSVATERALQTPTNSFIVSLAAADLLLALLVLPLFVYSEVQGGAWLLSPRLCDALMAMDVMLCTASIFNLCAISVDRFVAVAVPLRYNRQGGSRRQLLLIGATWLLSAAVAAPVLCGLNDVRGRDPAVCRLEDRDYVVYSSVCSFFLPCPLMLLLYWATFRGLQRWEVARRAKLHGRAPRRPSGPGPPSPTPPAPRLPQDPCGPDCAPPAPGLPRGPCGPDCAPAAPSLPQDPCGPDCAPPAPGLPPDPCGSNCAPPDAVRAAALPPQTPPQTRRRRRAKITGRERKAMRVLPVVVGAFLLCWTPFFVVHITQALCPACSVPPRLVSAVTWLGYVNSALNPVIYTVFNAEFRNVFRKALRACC
Description: Binding affinity towards human Dopamine receptor D4

D(3) dopamine receptor = D(3) dopamine receptor (Homo sapiens, UniProt P35462)
Description: Binding affinity against Dopamine receptor D3

Mus musculus = species: Mus musculus; test: animal or person; type: functional; details: sc
Description: In vivo inhibitory activity for apomorphine induced climbing in mice, sc

[1] = biological target: T2, Alpha-1A adrenergic receptor (Homo sapiens, UniProt P35348)
T2 sequence (P35348 whole entry): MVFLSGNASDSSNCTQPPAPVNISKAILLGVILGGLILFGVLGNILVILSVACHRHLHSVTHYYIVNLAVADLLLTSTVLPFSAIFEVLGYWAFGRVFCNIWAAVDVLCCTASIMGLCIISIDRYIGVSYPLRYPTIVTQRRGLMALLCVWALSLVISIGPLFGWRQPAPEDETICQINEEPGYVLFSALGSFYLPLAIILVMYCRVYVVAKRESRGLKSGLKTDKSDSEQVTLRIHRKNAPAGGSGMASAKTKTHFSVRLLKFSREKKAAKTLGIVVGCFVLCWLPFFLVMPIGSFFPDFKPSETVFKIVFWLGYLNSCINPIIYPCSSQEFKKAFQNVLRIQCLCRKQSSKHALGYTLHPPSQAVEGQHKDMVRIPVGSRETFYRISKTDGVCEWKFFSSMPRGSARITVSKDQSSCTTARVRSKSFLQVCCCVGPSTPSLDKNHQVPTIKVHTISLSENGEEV
Description: Binding affinity towards recombinant human alpha-1A adrenergic receptor

D(3) dopamine receptor, sequence (P35462 whole entry): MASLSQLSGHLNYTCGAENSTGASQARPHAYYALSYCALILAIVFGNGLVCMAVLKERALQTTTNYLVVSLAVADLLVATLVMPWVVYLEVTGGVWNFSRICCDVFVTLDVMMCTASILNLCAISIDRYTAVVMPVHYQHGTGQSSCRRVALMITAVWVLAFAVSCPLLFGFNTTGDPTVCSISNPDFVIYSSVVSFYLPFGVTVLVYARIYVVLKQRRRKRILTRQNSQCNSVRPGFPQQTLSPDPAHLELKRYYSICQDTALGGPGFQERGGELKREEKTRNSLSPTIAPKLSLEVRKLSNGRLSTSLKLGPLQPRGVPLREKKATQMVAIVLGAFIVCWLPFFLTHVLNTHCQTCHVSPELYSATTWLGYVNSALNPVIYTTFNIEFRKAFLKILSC

Compound: COc1cc(NC(=O)C2CC2)c(Cl)cc1C(=O)NC1CCN(Cc2ccccc2)C1 (centres undefined)
- Ki (D(4) dopamine receptor): 2.1 nM
- Ki (D(3) dopamine receptor): 21 nM
- ED50 (Mus musculus): 0.32 mg/kg

Compound: COCC1=C(C(=O)OC)[C@H](c2ccc(F)c(F)c2)C(C(=O)NCCCN2CCC(c3ccccn3)CC2)C(=O)N1 (some centres undefined)
- Ki [1]: 0.36 nM
